Test results as given in patent publication US20170052177A1, “COMPETITION ASSAY” (PharmaDiagnostics NV, priority 2014, published 2017).
Ends that are not written are not given here.

What was measured:
MDM2 = MDM2 (Homo sapiens, UniProt Q00987); assay: LSPR competition assay: MDM2 pre-incubated with nutlin-3 or p53, then p53-GNR conjugate; format: binding; conditions: fixed MDM2, p53-GNR conjugate; increasing concentration of added compound (FIGS. 4A and 4B)
Experimental: The determination of the inhibition of the interaction between MDM2 and p53 according to the methods described herein involves contacting the p53-GNR conjugate with MDM2. The optimal amount of MDM2 to be contacted with the conjugate was determined via a similar titration experiment as described above for Neutravidin (A2). ΔRU was calculated and plotted as a function of the MDM2 concentration (FIG. 3).

Neutravidin = Neutravidin (Gallus gallus, UniProt P02701); assay: LSPR competition assay: Neutravidin pre-incubated with HABA or biotin, then biotin-GNR conjugate; format: binding; conditions: for ΔRU as a function of the HABA and biotin concentration: fixed Neutravidin, biotin-GNR conjugate, final DMSO 5 w %, increasing concentration of added compound (FIG. 2)
Sequence of Neutravidin (P02701 25-152): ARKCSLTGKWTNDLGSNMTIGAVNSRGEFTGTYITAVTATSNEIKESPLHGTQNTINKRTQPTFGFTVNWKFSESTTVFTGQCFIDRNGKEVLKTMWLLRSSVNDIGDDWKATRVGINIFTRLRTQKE
From the text: Gold nanorods (GNRs) which are coated with mercaptoundecanoic acid (MUDA) were provided in suspension. The MUDA-coated GNRs provide an outer layer of carboxyl functional groups on their surface. For the conjugation of biotin to the GNRs, a biotin derivative (amino-PEG4-biotin) was used containing a polyethyleneglycol linker (4 monomers) having an amino functional group. More particularly, the carboxyl groups on the GNRs were activated using ethyl(dimethylaminopropyl) carbodiimide (EDC) and N-hydroxysuccinimide (NHS). Then, amino-PEG4-biotin was coupled via its amino functional group to the carboxyl groups provided on the GNRs, thereby providing a biotin-GNR conjugate. Potentially remaining unreacted carboxylic acid groups were blocked via reaction with 2-(2-aminoethoxy)ethanol (AEE). The biotin-GNR conjugate was purified from unreacted EDC, NHS, amino-PEG4-biotin and AEE by buffer exchange using a centrifugal ultrafiltration device.
The determination of the inhibition of the interaction between HABA and Neutravidin according to the methods described herein involves contacting the biotin-GNR conjugate with Neutravidin. The optimal amount of Neutravidin to be contacted with the conjugate was determined via titration. More particularly, a fixed amount of biotin-GNR was incubated with various concentrations of Neutravidin, and the absorbance spectra after incubation was recorded. ΔRU was calculated and plotted as a function of the Neutravidin concentration (FIG. 1). Suitable Neutravidin concentrations are determined as those concentrations which are sufficiently high to provide a detectable signal (ΔRU), provided that the signal is not in the plateau of the dose-response curve. Optimal concentrations are those providing a signal in the linear response range.
A fixed amount of Neutravidin was pre-incubated with different concentrations of HABA and biotin, followed by incubation with a fixed amount of biotin-GNR conjugate. HABA was provided as a solution in DMSO. […] The relative amounts of biotin-GNR and Neutravidin used are determined via titration as described above (A2). […]

Sequence of MDM2 (Q00987 whole entry, species assumed): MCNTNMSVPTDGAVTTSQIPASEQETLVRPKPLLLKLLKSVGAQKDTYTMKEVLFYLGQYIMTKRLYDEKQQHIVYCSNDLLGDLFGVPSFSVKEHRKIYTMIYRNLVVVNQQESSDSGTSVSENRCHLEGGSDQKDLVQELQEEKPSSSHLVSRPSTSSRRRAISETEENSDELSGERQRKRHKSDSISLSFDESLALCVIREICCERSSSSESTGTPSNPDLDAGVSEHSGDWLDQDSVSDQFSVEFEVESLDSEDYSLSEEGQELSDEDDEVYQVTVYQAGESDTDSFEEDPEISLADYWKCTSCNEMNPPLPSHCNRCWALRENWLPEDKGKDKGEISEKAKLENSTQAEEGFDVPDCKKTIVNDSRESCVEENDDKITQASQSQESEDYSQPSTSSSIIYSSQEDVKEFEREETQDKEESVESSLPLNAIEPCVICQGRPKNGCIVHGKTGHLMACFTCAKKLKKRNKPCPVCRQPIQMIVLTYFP

| ΔRU as a function of the added amount of nutlin-3 and p53 (MDM2) | Compound | ΔRU as a function of the HABA and biotin concentration (Neutravidin) | relative affinity to Neutravidin (Neutravidin; from concentration needed for significant reduction of ΔRU (FIG. 2)) |
| --- | --- | --- | --- |
| ΔRU decreases | p53: p53 peptide (Sequence: CGSGSGSGSGSRFMDYWEGL); p53 protein also known as cellular tumor antigen p53 (also: conjugated to gold nanorods, site not given here) | – | – |
| – | O=C(O)CCCC[C@@H]1SC[C@@H]2NC(=O)N[C@@H]21 [biotin] | ΔRU decreases | – |
| – | O=C(O)c1ccccc1N=Nc1ccc(O)cc1 [HABA, (2-(4-hydroxyazobenzene)benzoic acid)] | ΔRU decreases | lower affinity to Neutravidin than biotin |
